Results from publication PMC4780864, “Family-wide Structural Analysis of Human Numb-Associated Protein Kinases” (Structure(London, England:1993), 2016).

Assays:
Experiment in all cases: biochemical
BIKE = biological target: T1, BIKE (Homo sapiens, UniProt Q9NSY1); set-up: Thermal shift assay (DSF, SYPRO Orange), 2 uM kinase domain, mean delta Tm of triplicates versus DMSO; details: read-out: BIKE
T1 construct: gene BMP2K; catalytic domain-containing construct
Experimental: (§1) All measurements were performed in triplicate and mean values were reported for all compounds (Table S1). […] However, NAKs are often omitted from selectivity panels, including commercial screens.

GAK = biological target: T2, GAK (Homo sapiens, UniProt O14976); set-up: Thermal shift assay (DSF, SYPRO Orange), 2 uM kinase domain, mean delta Tm of triplicates versus DMSO; details: for ΔTm at 12.5 µM: read-out: GAK
T2 construct: catalytic domain-containing construct
T2 sequence (O14976 1-1311): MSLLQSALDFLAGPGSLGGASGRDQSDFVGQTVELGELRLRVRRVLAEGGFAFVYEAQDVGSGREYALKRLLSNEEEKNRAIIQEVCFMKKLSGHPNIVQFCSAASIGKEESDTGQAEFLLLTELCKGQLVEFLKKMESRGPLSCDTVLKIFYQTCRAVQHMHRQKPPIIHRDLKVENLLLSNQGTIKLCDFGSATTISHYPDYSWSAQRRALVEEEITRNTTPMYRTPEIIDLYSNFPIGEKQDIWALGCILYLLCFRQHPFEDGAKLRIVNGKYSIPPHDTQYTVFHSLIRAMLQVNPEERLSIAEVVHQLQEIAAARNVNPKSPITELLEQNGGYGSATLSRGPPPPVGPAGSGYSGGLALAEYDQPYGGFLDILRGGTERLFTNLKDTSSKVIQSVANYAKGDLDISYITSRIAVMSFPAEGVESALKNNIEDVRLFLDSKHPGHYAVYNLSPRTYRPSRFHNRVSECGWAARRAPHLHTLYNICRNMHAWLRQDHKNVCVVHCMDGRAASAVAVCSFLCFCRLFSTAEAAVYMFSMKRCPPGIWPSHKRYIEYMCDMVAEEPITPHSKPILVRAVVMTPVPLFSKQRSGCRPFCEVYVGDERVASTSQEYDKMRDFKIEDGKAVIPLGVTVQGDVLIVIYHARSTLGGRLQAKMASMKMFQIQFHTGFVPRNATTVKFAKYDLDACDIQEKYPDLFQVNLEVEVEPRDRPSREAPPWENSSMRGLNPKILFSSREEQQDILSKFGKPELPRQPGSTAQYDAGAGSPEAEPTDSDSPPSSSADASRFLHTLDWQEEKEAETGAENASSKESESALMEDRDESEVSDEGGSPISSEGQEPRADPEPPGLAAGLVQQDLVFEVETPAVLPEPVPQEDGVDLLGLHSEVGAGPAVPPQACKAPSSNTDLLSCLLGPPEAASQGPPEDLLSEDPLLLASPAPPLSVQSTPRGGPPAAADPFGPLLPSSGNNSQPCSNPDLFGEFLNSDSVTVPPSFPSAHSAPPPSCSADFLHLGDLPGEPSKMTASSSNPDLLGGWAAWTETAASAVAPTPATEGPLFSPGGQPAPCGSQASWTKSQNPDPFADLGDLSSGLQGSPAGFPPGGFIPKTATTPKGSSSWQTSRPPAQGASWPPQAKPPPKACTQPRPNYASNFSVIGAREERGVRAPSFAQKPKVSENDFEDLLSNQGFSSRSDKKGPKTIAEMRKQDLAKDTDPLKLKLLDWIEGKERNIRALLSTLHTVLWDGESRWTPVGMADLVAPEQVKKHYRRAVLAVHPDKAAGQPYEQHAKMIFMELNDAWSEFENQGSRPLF
Experimental: as §1

MPSK1 = biological target: T3, MPSK1 (Homo sapiens, UniProt O75716); set-up: Thermal shift assay (DSF, SYPRO Orange), 2 uM kinase domain, mean delta Tm of triplicates versus DMSO; details: read-out: MPSK1
T3 construct: gene STK16; catalytic domain-containing construct
T3 sequence (O75716 whole entry, the tested form may be a part): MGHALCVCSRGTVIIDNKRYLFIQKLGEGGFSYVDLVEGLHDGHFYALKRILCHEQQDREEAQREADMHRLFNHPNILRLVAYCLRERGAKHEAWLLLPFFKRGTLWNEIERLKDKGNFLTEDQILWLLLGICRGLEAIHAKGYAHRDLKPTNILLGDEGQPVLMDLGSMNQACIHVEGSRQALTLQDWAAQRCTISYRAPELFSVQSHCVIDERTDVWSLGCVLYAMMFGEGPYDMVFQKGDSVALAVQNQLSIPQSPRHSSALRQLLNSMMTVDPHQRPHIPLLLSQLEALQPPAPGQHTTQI
Experimental: as §1

AAK1 = AAK1 (Homo sapiens, UniProt Q2M2I8); set-up: kinase domain; Thermal shift assay (DSF, SYPRO Orange), 2 uM kinase domain, mean delta Tm of triplicates versus DMSO; details: read-out: AAK1
AAK1, sequence (Q2M2I8 27-365 limits assumed): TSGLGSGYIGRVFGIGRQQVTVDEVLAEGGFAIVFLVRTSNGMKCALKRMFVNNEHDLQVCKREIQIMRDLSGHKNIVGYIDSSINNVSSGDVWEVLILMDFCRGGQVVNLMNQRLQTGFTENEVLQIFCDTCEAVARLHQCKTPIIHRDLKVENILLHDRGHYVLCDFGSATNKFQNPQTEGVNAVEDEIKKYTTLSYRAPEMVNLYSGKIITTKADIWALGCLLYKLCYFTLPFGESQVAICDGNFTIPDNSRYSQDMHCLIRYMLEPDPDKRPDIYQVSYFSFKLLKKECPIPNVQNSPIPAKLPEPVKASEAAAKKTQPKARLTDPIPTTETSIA
Experimental: as §1

T1 sequence (Q9NSY1 whole entry, the tested form may be a part): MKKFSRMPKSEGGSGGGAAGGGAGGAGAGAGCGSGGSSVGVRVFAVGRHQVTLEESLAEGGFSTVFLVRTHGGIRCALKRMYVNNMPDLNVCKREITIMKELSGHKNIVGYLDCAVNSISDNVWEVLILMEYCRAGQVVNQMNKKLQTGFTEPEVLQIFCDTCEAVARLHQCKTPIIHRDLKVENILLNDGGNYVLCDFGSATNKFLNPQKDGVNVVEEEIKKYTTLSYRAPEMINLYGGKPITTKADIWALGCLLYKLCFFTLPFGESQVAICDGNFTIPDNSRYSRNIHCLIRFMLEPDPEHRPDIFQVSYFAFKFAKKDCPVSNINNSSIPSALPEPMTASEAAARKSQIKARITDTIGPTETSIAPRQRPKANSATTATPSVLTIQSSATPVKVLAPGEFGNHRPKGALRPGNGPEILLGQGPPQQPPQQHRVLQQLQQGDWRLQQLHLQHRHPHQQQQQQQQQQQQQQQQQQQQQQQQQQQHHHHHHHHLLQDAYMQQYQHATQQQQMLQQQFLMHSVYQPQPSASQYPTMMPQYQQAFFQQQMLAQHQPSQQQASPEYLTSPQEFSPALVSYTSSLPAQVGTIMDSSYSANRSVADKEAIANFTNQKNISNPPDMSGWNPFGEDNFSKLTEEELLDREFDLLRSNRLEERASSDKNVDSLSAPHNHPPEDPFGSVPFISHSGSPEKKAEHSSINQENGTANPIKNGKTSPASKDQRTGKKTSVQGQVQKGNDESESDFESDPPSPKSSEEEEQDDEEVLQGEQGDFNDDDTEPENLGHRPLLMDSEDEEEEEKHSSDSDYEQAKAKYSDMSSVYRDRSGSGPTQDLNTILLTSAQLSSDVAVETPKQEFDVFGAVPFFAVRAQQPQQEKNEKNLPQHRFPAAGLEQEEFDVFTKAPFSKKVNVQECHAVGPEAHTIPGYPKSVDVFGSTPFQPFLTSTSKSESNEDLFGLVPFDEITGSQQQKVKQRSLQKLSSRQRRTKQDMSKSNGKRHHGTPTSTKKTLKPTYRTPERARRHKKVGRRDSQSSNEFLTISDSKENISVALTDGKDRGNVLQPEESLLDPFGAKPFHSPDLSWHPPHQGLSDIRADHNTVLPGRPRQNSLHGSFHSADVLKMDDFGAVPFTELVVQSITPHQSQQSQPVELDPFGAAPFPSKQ

Structure (SMILES)	ΔTm at 12.5 µM (BIKE) [°C]	ΔTm at 12.5 µM (GAK) [°C]	ΔTm at 12.5 µM (MPSK1) [°C]	ΔTm at 12.5 µM (AAK1) [°C]	GAK (GAK; 12.5 µM) [°C]
COc1cc2c(Oc3ccc4[nH]c(C)cc4c3F)ncnc2cc1OCCCN1CCCC1 [Cediranib]	1.58	0.667	1.03	0.543	–
CC1(COc2ccc3c(c2)ncn3-c2ccc3cccc(N4CCC(N)CC4)c3n2)COC1 [Crenolanib]	12	3.73	4.1	4.66	–
C[C@@H](Oc1cc(-c2cnn(C3CCNCC3)c2)cnc1N)c1c(Cl)ccc(F)c1Cl [Crizotinib]	7.44	-0.44	1.95	3.01	–
CC(C)(C)c1nc(-c2cccc(NS(=O)(=O)c3c(F)cccc3F)c2F)c(-c2ccnc(N)n2)s1 [Dabrafenib]	2.95	9.06	4.06	2.23	–
COc1cc2ncnc(Nc3ccc(F)c(Cl)c3)c2cc1NC(=O)/C=C/CN1CCCCC1 [Dacomitinib]	5.85	7.28	0.97	3.8	–
Cn1c(=O)n(-c2ccc(C(C)(C)C#N)cc2)c2c3cc(-c4cnc5ccccc5c4)ccc3ncc21 [Dactolisib]	0.873	-0.05	1.49	0.747	–
CO[C@@H](C(=O)N1Cc2[nH]nc(NC(=O)c3ccc(N4CCN(C)CC4)cc3)c2C1)c1ccccc1 [Danusertib]	1.68	0.59	2.36	1.74	–
Cc1nc(Nc2ncc(C(=O)Nc3c(C)cccc3Cl)s2)cc(N2CCN(CCO)CC2)n1 [Dasatinib]	-0.673	–	0.0333	0.363	0.14
CCc1cnn2c(NCc3ccc[n+]([O-])c3)cc(N3CCCC[C@H]3CCO)nc12 [Dinaciclib]	0.5	-1.13	1	0.23	–
Cc1ccc(-n2nc(C(C)(C)C)cc2NC(=O)Nc2ccc(OCCN3CCOCC3)c3ccccc23)cc1 [Doramapimod]	0.16	-0.607	0.217	-0.103	–
CN1CCN(c2ccc3nc(-c4c(N)c5c(F)cccc5[nH]c4=O)[nH]c3c2)CC1 [Dovitinib]	0.12	-0.0367	0.593	0.263	–
CN1CCC(COc2cnc(-c3cccc(Cn4nc(-c5cccc(C#N)c5)ccc4=O)c3)nc2)CC1 [EMD1214063]	0.493	-0.86	0.74	0.79	–
Cn1cc(C2=C(c3cn(C4CCN(Cc5ccccn5)CC4)c4ccccc34)C(=O)NC2=O)c2ccccc21 [Enzastaurin]	1.79	-0.347	1.94	0.7	–
C#Cc1cccc(Nc2ncnc3cc(OCCOC)c(OCCOC)cc23)c1 [Erlotinib]	5.66	3.74	0.883	2.7	–
O=S(=O)(c1cccc2cnccc12)N1CCCNCC1 [Fasudil]	7	-0.0367	0.903	3.27	–
Cc1cnc(Nc2ccc(OCCN3CCCC3)cc2)nc1Nc1cccc(S(=O)(=O)NC(C)(C)C)c1 [Fedratinib]	14	8.95	12.4	10.6	–
